Data published in ChEMBL document CHEMBL1201862, “PubChem BioAssay data set” (2004).
Active and inactive are the calls of the source.

How the values were obtained:
Troponin, cardiac muscle = Troponin, cardiac muscle (Homo sapiens, UniProt P19429+P45379+P63316); experiment: Fluorescence-based biochemical high throughput dose response assay for activators of the calcium sensitivity of cardiac Regulated Thin Filaments (RTF). [Related pubchem assays (depositor defined):AID493008, AID493018, AID504382, AID504383]; type: protein-complex assay
[1] = biological target: 1-acylglycerol-3-phosphate O-acyltransferase ABHD5/Perilipin-5 (Homo sapiens, UniProt Q00G26+Q8WTS1); experiment: Luminescence-based biochemical high throughput dose response assay for inhibitors of the interaction of the lipase co-activator protein, abhydrolase domain containing 5 (ABHD5) with perilipin-5 (MLDP; PLIN5) (2K validation set). [Related pubchem assays (depositor defined):AID493035, AID493241]
Perilipin-1/ABHD5 = Perilipin-1/ABHD5 (Homo sapiens, UniProt O60240+Q8WTS1); experiment: Luminescence-based biochemical high throughput dose response assay for inhibitors of the interaction of the lipase co-activator protein, abhydrolase domain containing 5 (ABHD5) with perilipin-1 (PLIN1) (2K validation set). [Related pubchem assays (depositor defined):AID493027, AID493057]
HEK293 [2] = experiment: NOD1 signaling inhibitors, primary screen, cell-based, luminescence, uHTS (AID 1578); type: functional; conditions: Homo sapiens
HEK293 [3] = experiment: cells; type: functional, cell-based; conditions: Homo sapiens
HEK293 [4] = experiment: cells; type: functional, cell-based; conditions: Homo sapiens; remark: listed apart in the source
[5] = biological target: Nucleotide-binding oligomerization domain-containing protein 2 (Homo sapiens, UniProt Q9HC29); experiment: NOD2 signaling inhibitors, cell-based, luminescence, uHTS, HEK293 (AID 1566); type: functional
HEK293 [6] = experiment: NOD2 signaling inhibitors in MDP-stimulated cells, cell-based, uHTS, luminescence (AID 2001); type: functional; conditions: Homo sapiens
HEK293 [7] = experiment: cells; type: functional, cell-based; conditions: Homo sapiens; remark: listed apart in the source
[8] = biological target: T1, Voltage-gated N-type calcium channel alpha-1B subunit/Amyloid beta A4 precursor protein-binding family A member 1 (Homo sapiens, UniProt Q00975+Q02410); type: protein assay
[9] = biological target: T1, Voltage-gated N-type calcium channel alpha-1B subunit/Amyloid beta A4 precursor protein-binding family A member 1; type: protein assay; remark: listed apart in the source
[10] = biological target: G-protein coupled receptor 55 (Homo sapiens, UniProt Q9Y2T6); experiment: GPR55 antagonists blocking LPI-driven arrestin recruitment, primary screen, imaging, U2OS, beta-arrestin-GFP, LPI agonist (AID 2013); type: functional;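 further: antagonist potency measured as reduced agonist-driven arrestin aggregation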
[11] = biological target: T2, Mannose-6-phosphate isomerase (Homo sapiens, UniProt P34949); experiment: PMI enzyme inhibitors, confirmation, biochemical, fluorescence intensity (AID 1535)
T2 sequence (P34949 whole entry): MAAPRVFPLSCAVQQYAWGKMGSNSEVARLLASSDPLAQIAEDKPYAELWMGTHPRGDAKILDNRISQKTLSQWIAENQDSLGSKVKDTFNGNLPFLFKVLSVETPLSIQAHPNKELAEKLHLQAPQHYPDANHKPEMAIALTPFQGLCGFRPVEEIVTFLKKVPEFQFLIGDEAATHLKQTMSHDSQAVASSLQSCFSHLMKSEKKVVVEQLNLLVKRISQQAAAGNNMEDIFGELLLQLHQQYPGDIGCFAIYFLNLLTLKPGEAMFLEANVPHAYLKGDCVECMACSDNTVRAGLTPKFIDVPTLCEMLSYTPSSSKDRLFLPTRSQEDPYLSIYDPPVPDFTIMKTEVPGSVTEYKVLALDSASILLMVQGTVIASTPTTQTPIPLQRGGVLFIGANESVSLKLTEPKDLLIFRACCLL

Phosphomannomutase 2 = Phosphomannomutase 2 (Homo sapiens, UniProt O15305); experiment: Counter screen SAR assay for PMM2 inhibitors via a fluorescence intensity assay. [Related pubchem assays (depositor defined):AID1545, AID1574]
[12] = biological target: Alkaline phosphatase, placental type (Homo sapiens, UniProt P05187); experiment: PLAP enzyme inhibitors, confirmation, biochemical, luminescence (AID 1512); type: functional
[13] = biological target: T3, Alkaline phosphatase, tissue-nonspecific isozyme (Homo sapiens, UniProt P05186); experiment: human TNAP enzyme inhibitors, SAR follow-up, biochemical, luminescent, dose response (AID 1056)
T3 sequence (P05186 whole entry): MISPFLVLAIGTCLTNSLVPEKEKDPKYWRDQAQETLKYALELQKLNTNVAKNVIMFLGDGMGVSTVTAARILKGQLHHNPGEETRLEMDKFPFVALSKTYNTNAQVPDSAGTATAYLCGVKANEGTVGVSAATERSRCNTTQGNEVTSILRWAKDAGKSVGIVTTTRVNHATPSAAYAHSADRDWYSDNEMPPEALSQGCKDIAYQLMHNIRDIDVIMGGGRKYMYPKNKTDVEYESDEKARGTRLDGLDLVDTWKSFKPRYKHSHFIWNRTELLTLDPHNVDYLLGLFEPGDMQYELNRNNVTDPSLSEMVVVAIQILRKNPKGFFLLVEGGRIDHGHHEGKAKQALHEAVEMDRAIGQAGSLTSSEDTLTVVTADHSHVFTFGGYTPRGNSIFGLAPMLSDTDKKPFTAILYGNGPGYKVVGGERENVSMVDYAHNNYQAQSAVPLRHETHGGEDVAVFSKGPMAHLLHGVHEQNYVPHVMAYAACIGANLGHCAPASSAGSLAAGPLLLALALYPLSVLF

[14] = cytotoxicity in HEK-293T cells, dose response, cytotoxicity control for TCR NF-kB inhibitor project, luminescence, T-cell screen hits (AID 489026); type: functional, cell-based;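 further: cells exposed to compound about 14 hours before the viability readout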
[15] = NIH-3T3 fibroblast cytotoxicity, dose response, cytotoxicity control, cell-based, fluorescence, Alamar Blue, secondary assay (AID 2327); type: functional;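 further: NIH-3T3 mouse fibroblasts cultured with fluconazole at 8 µg/mL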
[16] = C. albicans growth with fluconazole, confirmation, fluorescence, retest (AID 2467); type: functional, cell-based
[17] = biological target: DNA damage-inducible transcript 3 protein (Mus musculus, UniProt P35639); type: functional, Cricetulus griseus
X-box-binding protein 1 = X-box-binding protein 1 (Homo sapiens, UniProt P17861); type: functional, Cricetulus griseus;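 further: confirmatory dose-response counter-screen serving a CHOP assay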

SMILES: CCc1ccc2c(COC(=O)CNS(=O)(=O)c3ccc(NC(C)=O)cc3)cc(=O)oc2c1
- EC50 (Troponin, cardiac muscle): > 71.5 µM (inactive)

SMILES: COc1ccc(C(=O)/C=C/c2cc(C(=O)O)cc3c2OCOC3)c(O)c1
- IC50 [1]: 6.24 µM (active)
- IC50 (Perilipin-1/ABHD5): 4.42 µM (active)

SMILES: O=C(Nc1ccc(Cl)cc1)c1cccc(N2C(=O)C3C4CCC(C4)C3C2=O)c1 (configuration not stated)
- EC50 (HEK293 [2]): 12 µM (active)
- IC50 (HEK293 [3]): 15.7 µM (active)
- IC50 (HEK293 [4]): > 20 µM (inactive)
- EC50 [5]: > 20 µM (inactive)
- IC50 (HEK293 [6]): 16.7 µM (inactive)
- IC50 (HEK293 [7]): > 20 µM (inactive)

SMILES: COc1ccc(/C=C/C(=O)NC(=S)Nc2ccc(S(=O)(=O)N=C(N)N)cc2)cc1OC
- IC50 [8]: 4.65 µM (active)
- IC50 [9]: > 50 µM (inactive)

SMILES: S=C(Nc1ccc(Oc2ccccc2)cc1)N(CCCN1CCOCC1)Cc1ccccn1
- IC50 [10]: 2.71 µM (active)

SMILES: Oc1ccc(/N=c2\ssnc2Cl)cc1
- IC50 [11]: > 100 µM (inactive)
- IC50 (Phosphomannomutase 2): > 100 µM (inactive)

SMILES: CCCCN1C(=O)/C(=N\Nc2ccccc2F)c2ccccc21
- IC50 [12]: 78.5 µM (active)
- IC50 [13]: > 100 µM (inactive)

SMILES: COC(=O)Cc1nn(-c2nc3ccccc3s2)c(O)c1/C(C)=N/c1ccc(OC)cc1
- EC50 (HEK293 [2]): < 0.31 µM (inactive)
- IC50 (HEK293 [3]): 1.13 µM (active)
- IC50 (HEK293 [4]): > 20 µM (inactive)
- EC50 [5]: 0.1 µM (active)
- IC50 (HEK293 [6]): 0.103 µM (active)
- IC50 (HEK293 [7]): > 20 µM (inactive)
- IC50 [14]: > 80 µM (inactive)

SMILES: CCCc1ccc(Oc2c[nH]nc2-c2ccc(O)cc2O)cc1
- EC50 [15]: > 150 µM (inconclusive)
- EC50 [16]: > 38 µM (not active)
- Absolute IC50 (CHOP) [17]: 10 µM
- Absolute IC50 (XBP1) (X-box-binding protein 1): 10 µM
